# Assay results: PMC10115881, “Disrupting the α-synuclein-ESCRT interaction with a peptide inhibitor mitigates neurodegeneration in preclinical models of Parkinson’s disease” (Nature Communications, 2023)
# Key:
# endogenous a-syn = test: Endogenous a-syn immunofluorescence in rat cortical neurons; format: cell-based
# From the text: (§1) Pregnant rats (E17) of the Sprague-Dawley strain were purchased from Envigo. Embryos were surgically removed from the mothers and cortices dissected in Hanks Balanced salt solution (Gibco). The meninges were removed, and cells were dissociated using a papain dissociation system (Worthington) before being resuspended in Neurobasal medium A supplemented with antibiotic-antimycotic solution (Gibco), L-glutamine substitute (GlutaMAX™; Gibco) and factor B27 (Gibco). […]
# (§2) After fixation, cells were permeabilized with 0.2% Triton-X-100 for 15 min, washed three times with PBS and then incubated with blocking solution (1% BSA, 22.52 mg/mL glycine, 0.1% Tween-20 in PBS or 0.4% saponin, 1% BSA, and 5% goat or donkey serum in PBS) for 1 h. […] Following another three washes with PBS, nuclei were counterstained with DAPI (ThermoFisher) and then coverslips were mounted on slides using Dako fluorescence mounting medium (Agilent) and sealed using clear nail varnish.
# (§3) Confocal images of immunofluorescent staining were acquired with a Zeiss LSM880 confocal microscope equipped with 405, 488, 555, and 639 nm laser lines. All images were taken within the linear range at constant gain and pinhole settings at optimal resolution settings determined by the software. […]
# full-length YFP = test: YFP fluorescence in rat cortical neurons, full length YFP; format: cell-based
# From the text: Adeno-associated virus (AAV) of a 1/2 serotype was used to express A53T a-syn (AAV-A53T), a truncated version of A53T a-syn lacking amino acids 103–140 (Δa-syn(103–140)), and WT a-syn, fused to either the N-terminal half of YFP (AAV-V1S) or the C-terminal half of YFP (AAV-SV2), all under the control of the CAG promoter, a hybrid of the chicken beta-actin (CBA) promoter fused with the cytomegalovirus (CMV) immediate early enhancer sequence (GeneDetect Ltd.)[46].
# Pregnant rats (E17) of the Sprague-Dawley strain were purchased from Envigo. Embryos were surgically removed from the mothers and cortices dissected in Hanks Balanced salt solution (Gibco). […]
# Confocal images of primary cortical neurons, iPSC-derived dopaminergic neurons, and LAMP1 staining within the SN were processed using Imaris software (Oxford instruments). […] Mean pixel intensity per GFP^+ cell (for experiments using GFP-tagged peptides) or RFP^+ cell (for experiments using RFP-tagged peptides) was calculated for a-syn or LAMP1 signal using the software’s surfaces module. The software’s surfaces module was used to identify GFP^+/NeuN^+ cells, and number of pS129 a-syn^+ puncta per GFP^+/NeuN^+ cortical neuron was counted using the software’s spots module. Mean pixel intensity per RFP^+/NeuN^+ cortical neuron was calculated for Rab7, cathepsin B, or cathepsin D signals using the software’s surfaces module. […]
# Rab7 = Rab7 fluorescence in rat cortical neurons; format: cell-based; conditions: A53T a-syn
# From the text: as §1, §2
# (§4) Confocal images of primary cortical neurons, iPSC-derived dopaminergic neurons, and LAMP1 staining within the SN were processed using Imaris software (Oxford instruments). […] Mean pixel intensity per GFP^+ cell (for experiments using GFP-tagged peptides) or RFP^+ cell (for experiments using RFP-tagged peptides) was calculated for a-syn or LAMP1 signal using the software’s surfaces module. […]
# [1] = system: a-syn in iPSC-derived dopaminergic neurons; test: a-syn fluorescence in iPSC-derived dopaminergic neurons; format: cell-based, human; conditions: A53T a-syn iPSC-derived dopaminergic neurons
# Procedure: A53T a-syn iCell Dopa neurons (catalog #R1109) and isogenic control iCell Dopa neurons (catalog #R1088) were purchased from Fujifilm Cellular Dynamics (Madison, WI, USA) and cultured as per the manufacturer’s instructions. Briefly, cells were plated in complete maintenance medium provided by the manufacturer on poly-L-ornithine/laminin coated μ plates (ibidi). Cells recovered from thawing for 24 h and then were transduced with AAV-Scramble1.3-RFP or AAV-PDpep1.3-RFP at MOI of 3000 for 48 h at which time media was completely changed. Cells were fixed using 4% PFA at 7 days post-plating.
# as §3, §4
sequence,measurement,setting,value
DEEIERQLKALG [PDpep1.3],Effect on endogenous a-syn fluorescence,endogenous a-syn,reduced fluorescence intensity
same,"Effect on YFP fluorescence, full-length YFP",full-length YFP,had no effect on fluorescence of YFP alone
same,Effect on Rab7,Rab7,normalized
same,"Effect on a-syn levels, iPSC neurons",[1],"returned levels of a-syn, including oligomeric a-syn, as well as LAMP1 levels to those of isogenic controls"
